Experimental data taken from patent US20080194574A1, “Pyrazine Derivatives As Effective Compounds Against Infectious Diseases” (AXXIMA PHARMACEUTICALS AG, priority 2003, published 2008).

Molecular target: T1, viral kinase pUL-97 (Human cytomegalovirus, UniProt P16788)
T1 construct: The pUL-97 gene was cloned into a baculovirus vector; GST (glutathione S-transferase) (N); made in house; host or cells: Sf9 insect cells, baculovirus
Assay: UL97 kinase assay on Immobilon plate
Type: biochemical
Settings: inhibition of UL 97 kinase activity; class by IC50 / % inhibition at 10 μM or 100 μM; read-out: Activity Class [A, B, C]
Procedure, shortened: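 GST-pUL97 from baculovirus-infected Sf9 cells phosphorylated myelin basic protein with ATP (3 μM in the added assay buffer) and γ-[33P]ATP in Tris-HCl pH 7.5 buffer with MnCl2 and DTT. Reaction ran 1 h at 30 °C with graded compound concentrations and was stopped with EDTA. 33P incorporation was measured by scintillation after filter capture and phosphoric acid washes.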

T1 sequence (P16788 whole entry): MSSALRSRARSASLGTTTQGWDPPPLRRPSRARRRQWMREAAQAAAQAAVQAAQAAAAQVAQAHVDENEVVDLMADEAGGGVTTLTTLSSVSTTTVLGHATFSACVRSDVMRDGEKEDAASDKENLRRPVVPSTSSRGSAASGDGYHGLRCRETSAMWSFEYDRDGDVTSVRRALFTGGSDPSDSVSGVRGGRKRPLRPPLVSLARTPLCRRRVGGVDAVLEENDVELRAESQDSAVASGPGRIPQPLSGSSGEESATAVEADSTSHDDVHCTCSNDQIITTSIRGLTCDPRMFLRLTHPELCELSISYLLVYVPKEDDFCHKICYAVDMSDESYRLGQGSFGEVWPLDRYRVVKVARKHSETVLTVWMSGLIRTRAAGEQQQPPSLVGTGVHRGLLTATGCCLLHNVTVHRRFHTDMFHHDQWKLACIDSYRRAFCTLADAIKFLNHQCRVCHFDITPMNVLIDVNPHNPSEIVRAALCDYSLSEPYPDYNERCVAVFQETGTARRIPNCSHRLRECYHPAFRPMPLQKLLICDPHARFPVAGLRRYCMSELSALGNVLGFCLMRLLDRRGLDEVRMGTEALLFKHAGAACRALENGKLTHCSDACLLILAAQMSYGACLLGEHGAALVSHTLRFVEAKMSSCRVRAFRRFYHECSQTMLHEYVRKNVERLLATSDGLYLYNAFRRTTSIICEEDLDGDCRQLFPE

Compound	IC50
CCOc1ccc(-c2cncc(N3CCN(c4ccncc4)CC3)n2)cc1 [compound 260, 6′-(4-Ethoxy-phenyl)-4-pyridin-4-yl-3,4,5,6-tetrahydro-2H-[1,2′]bipyrazinyl]	1 to 10 µM
CC(C)(C)c1ccc(-c2cncc(N3CCN(c4ccncc4)CC3)n2)cc1 [compound 257, 6′-(4-tert-Butyl-phenyl)-4-pyridin-4-yl-3,4,5,6-tetrahydro-2H-[1,2′]bipyrazinyl]	1 to 10 µM
COc1ccc(N2CCN(c3cncc(-c4cccc(C)c4C)n3)CC2)cc1OC [compound 226, 4-(3,4-Dimethoxy-phenyl)-6′-(2,3-dimethyl-phenyl)-3,4,5,6-tetrahydro-2H-[1,2′]bipyrazinyl]	10 to 100 µM
CSc1ccc(-c2cncc(N3CCN(c4ccc(F)cc4F)CC3)n2)cc1 [compound 274, 4-(2,4-Difluoro-phenyl)-6′-(4-methylsulfanyl-phenyl)-3,4,5,6-tetrahydro-2H-[1,2′]bipyrazinyl]	1 to 10 µM
CSc1ccc(-c2cncc(N3CCN(c4ccc(C)c(C)c4)CC3)n2)cc1 [compound 359, 4-(3,4-Dimethyl-phenyl)-6′-(4-methylsulfanyl-phenyl)-3,4,5,6-tetrahydro-2H-[1,2′]bipyrazinyl]	1 to 10 µM
Cc1cccc(N2CCN(c3cncc(-c4cc5ccccc5s4)n3)CC2)c1C [compound 295, 6′-Benzo[b]thiophen-2-yl-4-(2,3-dimethyl-phenyl)-3,4,5,6-tetrahydro-2H-[1,2′]bipyrazinyl]	10 to 100 µM
CC(=O)c1cccc(-c2cncc(N3CCN(c4ccc(F)cc4F)CC3)n2)c1 [compound 273, 1-{3-[4-(2,4-Difluoro-phenyl)-3,4,5,6-tetrahydro-2H-[1,2′]bipyrazinyl-6′-yl]-phenyl}-ethanone]	10 to 100 µM
Cc1ccc(N2CCN(c3cncc(-c4ccc(CO)cc4)n3)CC2)c(C)c1 [compound 321, {4-[4-(2,4-Dimethyl-phenyl)-3,4,5,6-tetrahydro-2H-[1,2′]bipyrazinyl-6′-yl]-phenyl}-methanol]	10 to 100 µM
c1ccc(Oc2ccc(-c3cncc(N4CCN(c5ccccn5)CC4)n3)cc2)cc1 [compound 341, 6′-(4-Phenoxy-phenyl)-4-pyridin-2-yl-3,4,5,6-tetrahydro-2H-[1,2′]bipyrazinyl]	10 to 100 µM
COc1cccc(N2CCN(c3cncc(-c4ccc(C)cc4)n3)CC2)c1 [compound 284, 4-(3-Methoxy-phenyl)-6′-p-tolyl-3,4,5,6-tetrahydro-2H-[1,2′]bipyrazinyl]	1 to 10 µM
COc1cccc(-c2cncc(N3CCN(c4cccc(OC)c4)CC3)n2)c1 [compound 366, 4,6′-Bis-(3-methoxy-phenyl)-3,4,5,6-tetrahydro-2H-[1,2′]bipyrazinyl]	1 to 10 µM
COc1ccc(N2CCN(c3cncc(-c4ccccc4C)n3)CC2)cc1OC [compound 262, 4-(3,4-Dimethoxy-phenyl)-6′-o-tolyl-3,4,5,6-tetrahydro-2H-[1,2′]bipyrazinyl]	10 to 100 µM
COc1ccc(N2CCN(c3cncc(-c4ccc(C)cc4)n3)CC2)cc1OC [compound 224, 4-(3,4-Dimethoxy-phenyl)-6′-p-tolyl-3,4,5,6-tetrahydro-2H-[1,2′]bipyrazinyl]	1 to 10 µM
Cc1cc(C)cc(-c2cncc(N3CCN(c4ccc(F)cc4F)CC3)n2)c1 [compound 209, 4-(2,4-Difluoro-phenyl)-6′-(3,5-dimethyl-phenyl)-3,4,5,6-tetrahydro-2H-[1,2′]bipyrazinyl]	10 to 100 µM
COc1cccc(N2CCN(c3cncc(-c4cccc(C(C)=O)c4)n3)CC2)c1 [compound 368, 1-{3-[4-(3-Methoxy-phenyl)-3,4,5,6-tetrahydro-2H-[1,2′]bipyrazinyl-6′-yl]-phenyl}-ethanone]	1 to 10 µM
Cc1cccc(-c2cncc(N3CCN(c4ccccc4)CC3)n2)c1 [compound 244, 4-Phenyl-6′-m-tolyl-3,4,5,6-tetrahydro-2H-[1,2′]bipyrazinyl]	10 to 100 µM
CN(C)c1ccc(-c2cncc(N3CCN(c4cnccn4)CC3)n2)cc1 [compound 343, Dimethyl-[4-(2′,3′,5′,6′-tetrahydro-[2,1′;4′,2″]terpyrazin-6-yl)-phenyl]-amine]	1 to 10 µM
Clc1ccc(N2CCN(c3cncc(-c4ccc5ccccc5c4)n3)CC2)cc1 [compound 348, 4-(4-Chloro-phenyl)-6′-naphthalen-2-yl-3,4,5,6-tetrahydro-2H-[1,2′]bipyrazinyl]	1 to 10 µM
CCOc1ccc(-c2cncc(N3CCN(c4ccc(C(C)=O)cc4)CC3)n2)cc1 [compound 207, 1-{4-[6′-(4-Ethoxy-phenyl)-2,3,5,6-tetrahydro-[1,2′]bipyrazinyl-4-yl]-phenyl}-ethanone]	10 to 100 µM
Clc1ccc(N2CCN(c3cncc(-c4cccc5ccccc45)n3)CC2)cc1Cl [compound 287, 4-(3,4-Dichloro-phenyl)-6′-naphthalen-1-yl-3,4,5,6-tetrahydro-2H-[1,2′]bipyrazinyl]	10 to 100 µM
COc1ccc(-c2cncc(N3CCN(c4ccc(C)cc4C)CC3)n2)cc1OC [compound 288]	10 to 100 µM
Cc1ccc(-c2cncc(N3CCN(c4ccccn4)CC3)n2)cc1 [compound 328, 4-Pyridin-2-yl-6′-p-tolyl-3,4,5,6-tetrahydro-2H-[1,2′]bipyrazinyl]	1 to 10 µM
Cc1cc(C)cc(-c2cncc(N3CCN(c4cccc(C)c4C)CC3)n2)c1 [compound 338, 4-(2,3-Dimethyl-phenyl)-6′-(3,5-dimethyl-phenyl)-3,4,5,6-tetrahydro-2H-[1,2′]bipyrazinyl]	10 to 100 µM

Same assay, conditions: inhibition of UL 97 kinase activity; class by IC50 / % inhibition at 10 or 100 μM; read-out: Activity Class [A, B, C]

Compound	IC50
N#Cc1ccccc1N1CCN(c2cncc(-c3ccc(F)c(Cl)c3)n2)CC1 [compound 62, 2-[6′-(3-Chloro-4-fluoro-phenyl)-2,3,5,6-tetrahydro-[1,2′]bipyrazinyl-4-yl]-benzonitrile]	1 to 10 µM
Clc1ccc(-c2cncc(NCc3ccccc3)n2)cc1 [compound 27, Benzyl-[6-(4-chloro-phenyl)-pyrazin-2-yl]-amine]	10 to 100 µM
COc1ccccc1N1CCN(c2cncc(-c3ccc(C(C)(C)C)cc3)n2)CC1 [compound 88, 6′-(4-tert-Butyl-phenyl)-4-(2-methoxy-phenyl)-3,4,5,6-tetrahydro-2H-[1,2′]bipyrazinyl]	10 to 100 µM
CSc1ccc(-c2cncc(N3CCN(c4ccccc4F)CC3)n2)cc1 [compound 116, 4-(2-Fluoro-phenyl)-6′-(4-methylsulfanyl-phenyl)-3,4,5,6-tetrahydro-2H-[1,2′]bipyrazinyl]	1 to 10 µM
COc1cccc(-c2cncc(N3CCN(c4cccc(Cl)c4)CC3)n2)c1 [compound 98, 4-(3-Chloro-phenyl)-6′-(3-methoxy-phenyl)-3,4,5,6-tetrahydro-2H-[1,2′]bipyrazinyl]	1 to 10 µM
OCc1cccc(-c2cncc(N3CCN(CCN4CCCC4)CC3)n2)c1 [compound 63, {3-[4-(2-Pyrrolidin-1-yl-ethyl)-3,4,5,6-tetrahydro-2H-[1,2′]bipyrazinyl-6′-yl]-phenyl}-methanol]	10 to 100 µM
NC(=O)c1ccc(-c2cncc(N3CCN(c4cccc(Cl)c4)CC3)n2)cc1 [compound 89, 4-[4-(3-Chloro-phenyl)-3,4,5,6-tetrahydro-2H-[1,2′]bipyrazinyl-6′-yl]-benzamide]	1 to 10 µM
Fc1cc(-c2cncc(N3CCN(c4ccccc4F)CC3)n2)ccc1-c1ccccc1 [compound 128, 6′-(2-Fluoro-biphenyl-4-yl)-4-(2-fluoro-phenyl)-3,4,5,6-tetrahydro-2H-[1,2′]bipyrazinyl]	10 to 100 µM
CSc1ccc(-c2cncc(N3CCN(c4ccc(C(C)=O)cc4)CC3)n2)cc1 [compound 159]	< 1 µM
c1ccc(Oc2ccc(-c3cncc(N4CCN(c5ccncc5)CC4)n3)cc2)cc1 [compound 163, 6′-(4-Phenoxy-phenyl)-4-pyridin-4-yl-3,4,5,6-tetrahydro-2H-[1,2′]bipyrazinyl]	1 to 10 µM
FC(F)(F)c1cc(-c2cncc(N3CCN(c4ccccc4)CC3)n2)cc(C(F)(F)F)c1 [compound 191, 6′-(3,5-Bis-trifluoromethyl-phenyl)-4-phenyl-3,4,5,6-tetrahydro-2H-[1,2′]bipyrazinyl]	10 to 100 µM
6′-(4-Methylsulfanyl-phenyl)-4-pyridin-4-yl-3,4,5,6-tetrahydro-2H-[1,2′]bipyrazinyl [compound 66]	1 to 10 µM
Cc1ccccc1-c1cncc(N2CCN(c3cccc(Cl)c3)CC2)n1 [compound 82, 4-(3-Chloro-phenyl)-6′-o-tolyl-3,4,5,6-tetrahydro-2H-[1,2′]bipyrazinyl]	10 to 100 µM
Cc1cccc(-c2cncc(N3CCN(c4cccc(C(F)(F)F)c4)CC3)n2)c1 [compound 154, 6′-m-Tolyl-4-(3-trifluoromethyl-phenyl)-3,4,5,6-tetrahydro-2H-[1,2′]bipyrazinyl]	10 to 100 µM
c1ccc(N2CCN(c3cncc(-c4ccc5ccccc5c4)n3)CC2)cc1 [compound 93, 6′-Naphthalen-2-yl-4-phenyl-3,4,5,6-tetrahydro-2H-[1,2′]bipyrazinyl]	1 to 10 µM
CSc1ccc(-c2cnc(N)c(N3CCN(c4ccncc4)CC3)n2)cc1 [compound 75, 6′-(4-Methylsulfanyl-phenyl)-4-pyridin-4-yl-3,4,5,6-tetrahydro-2H-[1,2′]bipyrazinyl-3′-ylamine]	< 1 µM
N#Cc1cccc(-c2cncc(N3CCN(c4ccncc4)CC3)n2)c1 [compound 167, 3-(4-Pyridin-4-yl-3,4,5,6-tetrahydro-2H-[1,2′]bipyrazinyl-6′-yl)-benzonitrile]	1 to 10 µM
FC(F)(F)c1ccc(-c2cncc(N3CCN(c4cccc(Cl)c4)CC3)n2)cc1 [compound 184, 4-(3-Chloro-phenyl)-6′-(4-trifluoromethyl-phenyl)-3,4,5,6-tetrahydro-2H-[1,2′]bipyrazinyl]	10 to 100 µM
